Test: Viscosity (ASTM D445)
Assay type: physicochemical
From the text: The viscosity may be determined using the protocol in ASTM D445, and for example ASTM D445FL1 for low temperature measurements.

Compound | 38 C. Viscosity (cP) | Room Temp (25 C.) Viscosity (cP) | −54 C. Viscosity (cP)
CCCCCCCCCCP(=O)(OCCCC)OCCCC [DiButyl Decane Phosphonate (AP32), DiButyl Decane Phosphonate] | 4.91 ± 0.01 | 6.97 ± 001 | 706.2 ± 5.4 cP
CCCCCCCCCCP(=O)(OCC)OCC [DiEthyl Decane Phosphonate (AP28), DiEthyl Decane Phosphonate] | 4.89 ± 0.01 | 7.02 ± 0.04 | Frozen <3 hr

Reference: US12227713B2, “Polysiloxane hydraulic fluids” (THE BOEING COMPANY, priority 2016, dated 2025)
